Measurements published in ChEMBL document CHEMBL1124488 (J Med Chem, 1989).

Target: Mu-type opioid receptor (Cavia porcellus, UniProt P97266)
Test: Inhibitory activity against opioid receptor mu of guinea pig brain using [3H]DAGO radioligand

Chain of Mu-type opioid receptor (P97266 whole entry): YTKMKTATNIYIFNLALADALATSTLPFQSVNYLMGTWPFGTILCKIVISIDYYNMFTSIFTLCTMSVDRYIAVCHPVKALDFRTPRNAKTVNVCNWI

Q: Which IC50 does the source give for `CN1CC[C@]23CCCC[C@H]2[C@H]1Cc1ccc(O)cc13` [LEVORPHANOL] here?
A: 600 pM
